Columns and labels:
Test in all cases: biochemical
Details in all cases: read-out: %Ctrl @ 1000nM
[1] = molecular target: ABL1(T315I)-phosphorylated (Homo sapiens, UniProt P00519, T315I)
AKT3 = AKT3 (Homo sapiens, UniProt Q9Y243)
AMPK-alpha2 = molecular target: T1, AMPK-alpha2 (Homo sapiens, UniProt P54646)
T1 construct: gene PRKAA2

AURKB = AURKB (Homo sapiens, UniProt Q96GD4)
BMPR2 = BMPR2 (Homo sapiens, UniProt Q13873)
CAMK4 = CAMK4 (Homo sapiens, UniProt Q16566)
CDK3 = CDK3 (Homo sapiens, UniProt Q00526)
CDKL2 = CDKL2 (Homo sapiens, UniProt Q92772)
CDKL2, sequence (Q92772 whole entry): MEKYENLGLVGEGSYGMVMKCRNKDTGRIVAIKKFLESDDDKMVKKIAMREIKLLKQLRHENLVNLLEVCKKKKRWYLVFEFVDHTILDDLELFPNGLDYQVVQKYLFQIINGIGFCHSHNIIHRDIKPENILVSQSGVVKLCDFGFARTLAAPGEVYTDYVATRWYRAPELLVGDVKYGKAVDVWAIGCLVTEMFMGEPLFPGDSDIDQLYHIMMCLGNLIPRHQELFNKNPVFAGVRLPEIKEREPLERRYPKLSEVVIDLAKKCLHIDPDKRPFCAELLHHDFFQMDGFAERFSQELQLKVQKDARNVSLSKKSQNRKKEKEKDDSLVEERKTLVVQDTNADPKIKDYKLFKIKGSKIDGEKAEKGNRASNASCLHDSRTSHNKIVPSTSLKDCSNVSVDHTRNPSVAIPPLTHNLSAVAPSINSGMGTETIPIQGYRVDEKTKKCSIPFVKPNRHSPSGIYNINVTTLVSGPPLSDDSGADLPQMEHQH

CLK2 = CLK2 (Homo sapiens, UniProt P49760)
CLK2, sequence (P49760 whole entry): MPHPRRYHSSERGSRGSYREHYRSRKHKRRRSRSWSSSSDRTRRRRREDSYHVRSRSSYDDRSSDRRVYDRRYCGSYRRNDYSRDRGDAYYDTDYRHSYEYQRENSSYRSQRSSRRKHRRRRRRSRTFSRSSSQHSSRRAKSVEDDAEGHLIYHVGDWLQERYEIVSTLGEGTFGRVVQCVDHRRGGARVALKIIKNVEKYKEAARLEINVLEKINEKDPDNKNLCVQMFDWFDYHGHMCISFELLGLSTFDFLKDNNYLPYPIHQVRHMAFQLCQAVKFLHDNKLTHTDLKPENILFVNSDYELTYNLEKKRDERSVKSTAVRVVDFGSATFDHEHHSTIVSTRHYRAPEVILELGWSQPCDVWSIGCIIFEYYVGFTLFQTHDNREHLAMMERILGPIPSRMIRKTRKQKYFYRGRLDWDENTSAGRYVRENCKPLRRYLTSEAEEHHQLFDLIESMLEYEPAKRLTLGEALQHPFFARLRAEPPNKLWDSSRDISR

CLK4 = CLK4 (Homo sapiens, UniProt Q9HAZ1)
EGFR(S752-I759del) = EGFR(S752-I759del) (Homo sapiens, UniProt P00533, DEL752-759)
ERK4 = molecular target: T2, ERK4 (Homo sapiens, UniProt P31152)
T2 construct: gene MAPK4

FLT4 = FLT4 (Homo sapiens, UniProt P35916)
FLT4, sequence (P35916 whole entry): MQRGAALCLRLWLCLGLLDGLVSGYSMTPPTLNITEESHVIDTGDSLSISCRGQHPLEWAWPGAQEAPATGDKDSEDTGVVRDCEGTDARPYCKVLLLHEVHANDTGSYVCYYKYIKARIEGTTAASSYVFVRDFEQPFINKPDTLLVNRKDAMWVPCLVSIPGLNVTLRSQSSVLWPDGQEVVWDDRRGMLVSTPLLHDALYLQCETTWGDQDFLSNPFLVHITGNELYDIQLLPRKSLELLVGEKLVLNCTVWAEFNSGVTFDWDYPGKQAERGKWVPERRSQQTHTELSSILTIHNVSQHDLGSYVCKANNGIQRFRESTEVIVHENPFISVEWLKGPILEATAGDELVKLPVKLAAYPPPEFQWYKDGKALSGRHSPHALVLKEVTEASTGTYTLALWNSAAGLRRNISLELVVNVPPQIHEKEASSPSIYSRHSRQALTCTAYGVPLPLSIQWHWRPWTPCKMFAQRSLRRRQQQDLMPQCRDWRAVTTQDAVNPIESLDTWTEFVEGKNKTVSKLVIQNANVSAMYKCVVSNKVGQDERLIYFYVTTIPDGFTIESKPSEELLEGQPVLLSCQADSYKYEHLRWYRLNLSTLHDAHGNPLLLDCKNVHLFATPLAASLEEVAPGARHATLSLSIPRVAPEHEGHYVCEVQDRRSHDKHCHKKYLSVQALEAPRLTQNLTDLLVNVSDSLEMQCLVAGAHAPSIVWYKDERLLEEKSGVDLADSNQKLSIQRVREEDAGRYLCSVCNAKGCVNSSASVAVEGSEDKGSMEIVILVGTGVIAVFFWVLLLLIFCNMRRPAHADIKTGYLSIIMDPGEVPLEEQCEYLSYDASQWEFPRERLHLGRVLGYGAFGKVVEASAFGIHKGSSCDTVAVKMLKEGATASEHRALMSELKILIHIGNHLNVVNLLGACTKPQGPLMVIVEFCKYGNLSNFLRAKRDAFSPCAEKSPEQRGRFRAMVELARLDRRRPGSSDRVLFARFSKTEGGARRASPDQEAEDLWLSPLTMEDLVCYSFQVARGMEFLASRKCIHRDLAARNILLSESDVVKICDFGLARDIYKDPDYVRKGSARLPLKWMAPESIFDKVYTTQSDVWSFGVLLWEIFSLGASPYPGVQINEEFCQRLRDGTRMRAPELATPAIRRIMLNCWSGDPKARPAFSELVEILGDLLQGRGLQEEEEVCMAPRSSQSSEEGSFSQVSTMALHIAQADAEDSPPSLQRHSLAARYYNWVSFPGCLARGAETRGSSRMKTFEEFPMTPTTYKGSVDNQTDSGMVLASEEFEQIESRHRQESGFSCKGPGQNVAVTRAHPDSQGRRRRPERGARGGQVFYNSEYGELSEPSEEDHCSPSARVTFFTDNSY

GRK2 = GRK2 (Homo sapiens, UniProt P25098)
GRK4 = GRK4 (Homo sapiens, UniProt P32298)
HCK = HCK (Homo sapiens, UniProt P08631)
KIT(V559D) = KIT(V559D) (Homo sapiens, UniProt P10721, V559D)
LCK = LCK (Homo sapiens, UniProt P06239)
LRRK2(G2019S) = LRRK2(G2019S) (Homo sapiens, UniProt Q5S007, G2019S)
LYN = LYN (Homo sapiens, UniProt P07948)
MAP3K15 = MAP3K15 (Homo sapiens, UniProt Q6ZN16)
MARK1 = MARK1 (Homo sapiens, UniProt Q9P0L2)
MEK6 = molecular target: T3, MEK6 (Homo sapiens, UniProt P52564)
T3 construct: gene MAP2K6

MLK2 = molecular target: T4, MLK2 (Homo sapiens, UniProt Q02779)
T4 construct: gene MAP3K10

MST4 = molecular target: T5, MST4 (Homo sapiens, UniProt Q9P289)
T5 construct: gene STK26

MYO3B = MYO3B (Homo sapiens, UniProt Q8WXR4)
NEK10 = NEK10 (Homo sapiens, UniProt Q6ZWH5)
NEK11 = NEK11 (Homo sapiens, UniProt Q8NG66)
PAK6 = PAK6 (Homo sapiens, UniProt Q9NQU5)
PAK6, sequence (Q9NQU5 whole entry): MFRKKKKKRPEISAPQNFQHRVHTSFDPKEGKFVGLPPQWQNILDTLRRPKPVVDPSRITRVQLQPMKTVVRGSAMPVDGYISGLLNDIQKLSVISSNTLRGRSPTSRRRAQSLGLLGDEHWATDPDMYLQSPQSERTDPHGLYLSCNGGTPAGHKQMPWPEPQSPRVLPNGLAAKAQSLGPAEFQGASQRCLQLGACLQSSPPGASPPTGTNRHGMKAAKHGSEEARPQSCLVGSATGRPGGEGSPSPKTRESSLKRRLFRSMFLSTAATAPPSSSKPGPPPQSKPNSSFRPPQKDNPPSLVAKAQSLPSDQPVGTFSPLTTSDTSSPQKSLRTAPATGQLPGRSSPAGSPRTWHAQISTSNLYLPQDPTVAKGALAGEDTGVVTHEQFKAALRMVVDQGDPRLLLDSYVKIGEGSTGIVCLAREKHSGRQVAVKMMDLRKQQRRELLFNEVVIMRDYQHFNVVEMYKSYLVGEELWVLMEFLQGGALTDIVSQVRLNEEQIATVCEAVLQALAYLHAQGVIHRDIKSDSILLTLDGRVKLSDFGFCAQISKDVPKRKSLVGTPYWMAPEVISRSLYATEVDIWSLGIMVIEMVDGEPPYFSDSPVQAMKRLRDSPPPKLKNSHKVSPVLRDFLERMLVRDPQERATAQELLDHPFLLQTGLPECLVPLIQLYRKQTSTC

PDGFRB = PDGFRB (Homo sapiens, UniProt P09619)
PIK4CB = molecular target: T6, PIK4CB (Homo sapiens, UniProt Q9UBF8)
T6 construct: gene PI4KB
T6 sequence (Q9UBF8 whole entry): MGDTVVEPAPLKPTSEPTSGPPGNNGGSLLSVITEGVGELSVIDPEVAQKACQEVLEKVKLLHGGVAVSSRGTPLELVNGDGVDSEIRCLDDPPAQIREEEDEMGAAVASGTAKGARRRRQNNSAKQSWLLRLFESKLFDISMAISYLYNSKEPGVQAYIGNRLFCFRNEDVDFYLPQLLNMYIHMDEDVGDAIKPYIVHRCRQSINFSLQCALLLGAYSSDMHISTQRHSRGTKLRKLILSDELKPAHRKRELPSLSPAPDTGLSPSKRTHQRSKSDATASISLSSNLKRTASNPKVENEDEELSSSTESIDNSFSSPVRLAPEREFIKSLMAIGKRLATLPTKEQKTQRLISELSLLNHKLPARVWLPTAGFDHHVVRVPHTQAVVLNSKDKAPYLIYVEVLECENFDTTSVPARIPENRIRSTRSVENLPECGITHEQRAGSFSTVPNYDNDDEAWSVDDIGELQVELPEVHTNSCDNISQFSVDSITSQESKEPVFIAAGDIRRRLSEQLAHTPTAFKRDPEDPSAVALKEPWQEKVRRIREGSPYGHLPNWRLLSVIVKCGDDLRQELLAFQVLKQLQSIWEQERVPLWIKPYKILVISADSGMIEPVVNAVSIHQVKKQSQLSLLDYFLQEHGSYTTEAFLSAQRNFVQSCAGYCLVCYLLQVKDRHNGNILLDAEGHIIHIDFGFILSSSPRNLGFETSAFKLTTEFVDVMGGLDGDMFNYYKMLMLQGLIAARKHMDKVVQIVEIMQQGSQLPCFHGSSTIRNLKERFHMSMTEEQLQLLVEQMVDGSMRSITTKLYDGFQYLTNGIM

PRKCD = PRKCD (Homo sapiens, UniProt Q05655)
PRKR = molecular target: T7, PRKR (Homo sapiens, UniProt P19525)
T7 construct: gene EIF2AK2
T7 sequence (P19525 whole entry): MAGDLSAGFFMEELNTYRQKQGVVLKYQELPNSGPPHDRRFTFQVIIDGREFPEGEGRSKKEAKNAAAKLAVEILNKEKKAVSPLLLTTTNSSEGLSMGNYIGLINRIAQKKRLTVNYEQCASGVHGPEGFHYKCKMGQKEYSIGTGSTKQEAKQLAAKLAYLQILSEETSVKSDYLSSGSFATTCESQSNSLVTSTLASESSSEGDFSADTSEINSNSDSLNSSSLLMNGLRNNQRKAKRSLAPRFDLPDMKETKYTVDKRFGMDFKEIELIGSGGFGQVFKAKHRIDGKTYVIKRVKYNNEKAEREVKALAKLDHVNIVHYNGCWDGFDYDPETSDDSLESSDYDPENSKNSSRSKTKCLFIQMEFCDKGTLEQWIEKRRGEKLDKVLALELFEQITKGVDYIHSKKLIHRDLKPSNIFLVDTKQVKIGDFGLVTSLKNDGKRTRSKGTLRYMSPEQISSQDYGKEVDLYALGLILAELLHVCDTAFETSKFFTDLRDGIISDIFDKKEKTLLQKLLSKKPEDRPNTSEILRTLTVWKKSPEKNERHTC

RIOK2 = RIOK2 (Homo sapiens, UniProt Q9BVS4)
SRPK1 = SRPK1 (Homo sapiens, UniProt Q96SB4)
SRPK1, sequence (Q96SB4 whole entry): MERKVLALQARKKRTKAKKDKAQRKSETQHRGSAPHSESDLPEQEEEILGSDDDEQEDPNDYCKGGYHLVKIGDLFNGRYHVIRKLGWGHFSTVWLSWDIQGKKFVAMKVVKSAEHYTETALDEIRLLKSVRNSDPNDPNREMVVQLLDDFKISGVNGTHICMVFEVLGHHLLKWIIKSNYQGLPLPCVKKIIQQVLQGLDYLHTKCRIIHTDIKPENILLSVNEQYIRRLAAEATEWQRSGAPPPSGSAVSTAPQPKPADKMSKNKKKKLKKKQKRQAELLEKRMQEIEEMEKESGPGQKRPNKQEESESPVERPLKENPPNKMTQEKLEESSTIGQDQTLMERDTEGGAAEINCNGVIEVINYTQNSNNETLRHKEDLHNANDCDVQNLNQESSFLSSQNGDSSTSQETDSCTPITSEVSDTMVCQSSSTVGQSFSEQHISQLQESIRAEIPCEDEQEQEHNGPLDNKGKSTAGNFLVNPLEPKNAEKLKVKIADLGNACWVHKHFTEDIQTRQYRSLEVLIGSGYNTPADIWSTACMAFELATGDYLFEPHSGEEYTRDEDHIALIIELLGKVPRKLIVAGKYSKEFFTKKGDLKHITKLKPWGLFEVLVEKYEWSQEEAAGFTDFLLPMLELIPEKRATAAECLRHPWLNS

Work on `Cc1cn(-c2cc(NC(=O)c3ccc4c(c3)CN(c3cncnc3)C[C@@H]4C)cc(C(F)(F)F)c2)cn1` [Compound 6j] yielded a remaining activity at 1 µM [1] of 97%, a remaining activity at 1 µM (AKT3) of 96% and a remaining activity at 1 µM (AMPK-alpha2) of 100%. The remaining activity at 1 µM (AURKB) was 98%, the remaining activity at 1 µM (BMPR2) was 100% and the remaining activity at 1 µM (CAMK4) was 86%. For the same molecule, the remaining activity at 1 µM (CDK3) was 97%, the remaining activity at 1 µM (CDKL2) was 93% and the remaining activity at 1 µM (CLK2) was 86%. It also gave a remaining activity at 1 µM (CLK4) of 96%, a remaining activity at 1 µM (EGFR(S752-I759del)) of 82% and a remaining activity at 1 µM (ERK4) of 93%. For the same molecule, the remaining activity at 1 µM (FLT4) was 96%, the remaining activity at 1 µM (GRK2) was 96% and the remaining activity at 1 µM (GRK4) was 100%. The remaining activity at 1 µM (HCK) was 86%, the remaining activity at 1 µM (KIT(V559D)) was 80% and the remaining activity at 1 µM (LCK) was 74%. The remaining activity at 1 µM (LRRK2(G2019S)) was 100%, the remaining activity at 1 µM (LYN) was 100% and the remaining activity at 1 µM (MAP3K15) was 100%. For the same molecule, the remaining activity at 1 µM (MARK1) was 74%, the remaining activity at 1 µM (MEK6) was 98% and the remaining activity at 1 µM (MLK2) was 98%. It also gave a remaining activity at 1 µM (MST4) of 100%, a remaining activity at 1 µM (MYO3B) of 85% and a remaining activity at 1 µM (NEK10) of 100%. It also gave a remaining activity at 1 µM (NEK11) of 87%, a remaining activity at 1 µM (PAK6) of 85% and a remaining activity at 1 µM (PDGFRB) of 82%. The remaining activity at 1 µM (PIK4CB) was 95%, the remaining activity at 1 µM (PRKCD) was 94% and the remaining activity at 1 µM (PRKR) was 100%. It also gave a remaining activity at 1 µM (RIOK2) of 77% and a remaining activity at 1 µM (SRPK1) of 100%.

From PMC5053573, “Structure-Based Design of Tetrahydroisoquinoline-7-carboxamides as Selective Discoidin Domain Receptor 1 (DDR1) Inhibitors” (Journal of Medicinal Chemistry, 2016)
